# According to US4693999A, “Liposomes containing steroid esters” (priority 1984, dated 1987):
# Read-outs that look alike come from different tables or passages of the source.
# Columns and labels:
# [1] = tested on: Sephadex-included lung edema; test: Sephadex-induced lung edema in rats (anti-inflammatory effect), glucocorticoid in liposomes instilled into left lung lobe; assay type: in vivo, Sprague Dawley rats; settings: for inhibition in vivo at 3.35 µmol/kg / inhibition in vivo at 0.335 µmol/kg / inhibition in vivo at 0.0335 µmol/kg / inhibition in vivo at 0.1 µmol/kg: Rattus norvegicus; for inhibition in vivo at 3.35 µmol/kg: 3350 nmol/kg instilled in left lung lobe; for reduction of edema in left lung / protection of left lung / block of left lung edema (in words) / activity in the other lung half (in words): summary of Table 1; for reduction of edema in left lung / protection of left lung / block of left lung edema (in words): locally treated left lung; for activity in the other lung half (in words): right lung compared with left; for inhibition in vivo at 0.0335 µmol/kg: 33.5 nmol/kg instilled in left lung lobe; for inhibition in vivo at 0.1 µmol/kg: 100 nmol/kg instilled in left lung lobe
# Excerpt: (§1) Intratracheal instillation of Sephadex beads into rats leads to bronchial and also to alveolar inflammation. This provokes interstitial lung edema, which increases the lung weight, and the inflammation can be graded as the increase of the lung weight compared to a saline-instilled control group. The lung edema formation can be counteracted by pretreatment with glucocorticoids, preferably by local administration as intratracheal instillation or as inhalation. Ideally an anti-inflammatory action should be obtained only at the site of glucocorticoid application in the lung, but not in the rest of the body as this in long term treatment can lead to therapy limiting systemic side effects.
# The differentiation between glucocorticoid actions in the treated lung region and outside this area can be tested in the following way.
# (§2) Sprague Dawley rats (225 g) were slightly anaesthetized with ether and the glucocorticoid test preparation (in liposomes suspended in saline) in a volume of 0.5 ml/kg was instilled into just the left lung lobe. Two h later a suspension of Sephadex (5 mg/kg in a volume of […] was instilled in the trachea well above the bifurcation so that the suspension reached both the left and right lung lobes. Twenty h later the rats were killed and the left and right lung lobes dissected out and weighed separately. Also the spleen weight and the body weight gain over the 20 h were determined. Control groups got vehicle instead of glucocorticoid preparation and saline instead of Sephadex suspension to determine the weight of non-drug treated Sephadex edema and the normal lung weight as well as the normal spleen weight and body weight gain.
# As stated above an ideal glucocorticoid preparation should have a very high glucocorticoid activity at the site of application in lung, but with low activity outside this area. Therefore, in the selected model an optimal preparation should more or less completely block the edema in the locally pretreated left lung lobe, but have much less activity in the right lung half and no significant inhibitory action on the spleen weight and the body weight gain. […] In the test protocol used, doses were selected leading to a more or less complete block of the edema in the left lung and at these dose levels the extent of the other activities was estimated. At the selected dose 7-9 rats were tested in parallel.
# [2] = Spleen weight and body weight gain in the Sephadex lung edema test (systemic glucocorticoid action); assay type: in vivo, Sprague Dawley rats; parameters: Body weight gain in rel. to control: unit not given here; settings: for Body weight gain in rel. to control: over 20 h; for % inhib. compared to control group, spleen: spleen weight, 20 h after Sephadex; for reduction of body weight gain (in words) / reduction of spleen (in words): summary of Table 1
# Excerpt: as §1, §2
# As stated above an ideal glucocorticoid preparation should have a very high glucocorticoid activity at the site of application in lung, but with low activity outside this area. Therefore, in the selected model an optimal preparation should more or less completely block the edema in the locally pretreated left lung lobe, but have much less activity in the right lung half and no significant inhibitory action on the spleen weight and the body weight gain. It has been considered more important to search for a high degree of separation between the local activity (exemplified with the left lung) to the other activities than to search for a high absolute potency (high activity per mg drug) for the action in the left lung. In the test protocol used, doses were selected leading to a more or less complete block of the edema in the left lung and at these dose levels the extent of the other activities was estimated. At the selected dose 7-9 rats were tested in parallel. Mean±s.e.m. was calculated and compared with Student's t-test to the results of the corresponding Sephadex control group.
# [3] = liposomes in saline, 2 h before Sephadex, 20 h readout, locally treated lobe, read-out: % inhib. compared to control group, left lobe
# [4] = liposomes in saline, 2 h before Sephadex, 20 h readout, untreated lobe, read-out: % inhib. compared to control group, right lobe
# [5] = 3350 nmol/kg instilled in left lung lobe, NS = not significant
# [6] = 20 h, read-out: % inhib. compared to control group, left lobe
# [7] = 20 h, read-out: % inhib. compared to control group, right lobe
# [8] = 335 nmol/kg instilled in left lung lobe, NS = not significant
# [9] = 335 nmol/kg instilled in left lung lobe, liposomes in saline, 2 h before Sephadex, 20 h readout, locally treated lobe, read-out: % inhib. compared to control group, left lobe
# [10] = 335 nmol/kg instilled in left lung lobe, liposomes in saline, 2 h before Sephadex, 20 h readout, untreated lobe, read-out: % inhib. compared to control group, right lobe
# [11] = 33.5 nmol/kg instilled in left lung lobe, NS = not significant
# [12] = 100 nmol/kg instilled in left lung lobe
smiles,measurement,setting,value
CCCCCCCCCCCCCCCC(=O)OCC(=O)[C@@]1(OC(=O)CC)[C@@H](C)C[C@H]2[C@@H]3CCC4=CC(=O)C=C[C@]4(C)[C@@]3(Cl)[C@@H](O)C[C@@]21C [Beclomethasone-21-palmitate-17-propionate],inhibition in vivo at 3.35 µmol/kg,[1]; [3],87%
same,inhibition in vivo at 3.35 µmol/kg,[1]; [4],47%
same,reduction of edema in left lung / protection of left lung,[1],87%
same,Body weight gain in rel. to control,[2]; [5],-3.1
same,"% inhib. compared to control group, spleen",[2]; [5],5%
CCCCCCCCCCCCCCCC(=O)OCC(=O)[C@@]1(O)[C@@H](C)C[C@H]2[C@@H]3CCC4=CC(=O)C=C[C@]4(C)[C@@]3(F)[C@@H](O)C[C@@]21C [Betamethasone-21-palmitate],inhibition in vivo at 0.335 µmol/kg,[1]; [6],109%
same,inhibition in vivo at 0.335 µmol/kg,[1]; [7],-5%
same,Body weight gain in rel. to control,[2]; [8],0.2
same,"% inhib. compared to control group, spleen",[2]; [8],7%
CCCCCCCCCCCCCCCC(=O)OCC(=O)[C@@]12OC(CCC)O[C@@H]1C[C@H]1[C@@H]3CCC4=CC(=O)C=C[C@]4(C)[C@H]3[C@@H](O)C[C@@]12C (some centres unmarked) [Budesonide-21-palmitate],inhibition in vivo at 0.335 µmol/kg,[1]; [9],100%
same,inhibition in vivo at 0.335 µmol/kg,[1]; [10],37%
same,Body weight gain in rel. to control,[2]; [8],-1.4
same,"% inhib. compared to control group, spleen",[2]; [8],4%
CCCCC(=O)OCC(=O)[C@@]12OC(CCC)O[C@@H]1C[C@H]1[C@@H]3CCC4=CC(=O)C=C[C@]4(C)[C@H]3[C@@H](O)C[C@@]12C (some centres unmarked) [Budesonide-21-valerate],inhibition in vivo at 0.335 µmol/kg,[1]; [9],21%
same,inhibition in vivo at 0.335 µmol/kg,[1]; [10],22%
same,reduction of edema in left lung / protection of left lung,[1],up to 38%
same,Body weight gain in rel. to control,[2]; [8],-0.8
same,"% inhib. compared to control group, spleen",[2]; [8],-1%
CCCC1O[C@@H]2C[C@H]3[C@@H]4CCC5=CC(=O)C=C[C@]5(C)[C@H]4[C@@H](O)C[C@]3(C)[C@]2(C(=O)CO)O1 (some centres unmarked) [Budesonide],inhibition in vivo at 0.335 µmol/kg,[1]; [9],38%
same,inhibition in vivo at 0.335 µmol/kg,[1]; [10],30%
same,reduction of edema in left lung / protection of left lung,[1],up to 38%
same,Body weight gain in rel. to control,[2]; [8],1.6
CCCCCCCCCCCCCCCC(=O)OCC(=O)[C@@]1(OC(=O)CC)[C@H](C)C[C@H]2[C@@H]3CCC4=CC(=O)C=C[C@]4(C)[C@@]3(F)[C@@H](O)C[C@@]21C [Dexamethasone-21-palmitate-17-propionate],inhibition in vivo at 0.335 µmol/kg,[1]; [9],104%
same,inhibition in vivo at 0.335 µmol/kg,[1]; [10],44%
same,Body weight gain in rel. to control,[2]; [8],1.0
same,"% inhib. compared to control group, spleen",[2]; [8],3%
CCCCCCCCCCCCCCCC(=O)OCC(=O)[C@@]1(O)[C@H](C)C[C@H]2[C@@H]3CCC4=CC(=O)C=C[C@]4(C)[C@@]3(F)[C@@H](O)C[C@@]21C [Dexamethasone-21-palmitate],inhibition in vivo at 0.335 µmol/kg,[1]; [6],127%
same,inhibition in vivo at 0.335 µmol/kg,[1]; [7],109%
same,block of left lung edema (in words),[1],completely blocked the left lung edema
same,activity in the other lung half (in words),[1],as high activity in the other lung half
same,Body weight gain in rel. to control,[2]; [8],-10.8
same,reduction of body weight gain (in words),[2],significant reduction of body weight gain
same,reduction of spleen (in words),[2],significant reduction of body weight gain and to spleen
CCCCCCCCCCCCCCCC(=O)OCC(=O)[C@@]1(OC(=O)CC)[C@H](C)C[C@H]2[C@@H]3C[C@H](F)C4=CC(=O)C=C[C@]4(C)[C@@]3(F)[C@@H](O)C[C@@]21C [Flumethasone-21-palmitate-17-propionate],inhibition in vivo at 0.0335 µmol/kg,[1]; [3],108%
same,inhibition in vivo at 0.0335 µmol/kg,[1]; [4],43%
same,Body weight gain in rel. to control,[2]; [11],2.0
same,"% inhib. compared to control group, spleen",[2]; [11],-1%
CCCCCCCCCCCCCCCC(=O)OCC(=O)[C@@]12OC(C)(C)O[C@@H]1C[C@H]1[C@@H]3C[C@H](F)C4=CC(=O)C=C[C@]4(C)[C@H]3[C@@H](O)C[C@@]12C [Flunisolide-21-palmitate],inhibition in vivo at 0.0335 µmol/kg,[1]; [3],133%
same,inhibition in vivo at 0.0335 µmol/kg,[1]; [4],44%
same,Body weight gain in rel. to control,[2]; [11],-2.6
same,"% inhib. compared to control group, spleen",[2]; [11],8%
CCCCCCCCCCCCCCCC(=O)OCC(=O)[C@@]12OC(C)(C)O[C@@H]1C[C@H]1[C@@H]3C[C@H](F)C4=CC(=O)C=C[C@]4(C)[C@@]3(F)[C@@H](O)C[C@@]12C [Fluocinolone acetonide-21-palmitate],inhibition in vivo at 0.1 µmol/kg,[1]; [3],117%
same,inhibition in vivo at 0.1 µmol/kg,[1]; [4],95%
same,block of left lung edema (in words),[1],completely blocked the left lung edema
same,activity in the other lung half (in words),[1],as high activity in the other lung half
same,Body weight gain in rel. to control,[2]; [12],-4.8
same,"% inhib. compared to control group, spleen",[2]; [12],15%
same,reduction of body weight gain (in words),[2],significant reduction of body weight gain
same,reduction of spleen (in words),[2],significant reduction of body weight gain and to spleen
CCCCCCCCCCCCCCCC(=O)OCC(=O)[C@@]1(O)CC[C@H]2[C@@H]3CCC4=CC(=O)CC[C@]4(C)[C@H]3[C@@H](O)C[C@@]21C [Hydrocortisone-21-palmitate],inhibition in vivo at 0.335 µmol/kg,[1]; [9],-13%
same,inhibition in vivo at 0.335 µmol/kg,[1]; [10],-7%
same,reduction of edema in left lung / protection of left lung,[1],up to 38%
same,Body weight gain in rel. to control,[2]; [8],-1
